{"source": "patent US10479795B2", "about": "(Incyte Corporation, priority 2016, dated 2019)", "note": "Where a name gives a salt, the structure may show the parent alone."}
{"target": "PI3Kγ (p110γ) Recombinant Human Protein (Homo sapiens (Human), UniProt P48736)", "sequence (P48736 whole entry)": "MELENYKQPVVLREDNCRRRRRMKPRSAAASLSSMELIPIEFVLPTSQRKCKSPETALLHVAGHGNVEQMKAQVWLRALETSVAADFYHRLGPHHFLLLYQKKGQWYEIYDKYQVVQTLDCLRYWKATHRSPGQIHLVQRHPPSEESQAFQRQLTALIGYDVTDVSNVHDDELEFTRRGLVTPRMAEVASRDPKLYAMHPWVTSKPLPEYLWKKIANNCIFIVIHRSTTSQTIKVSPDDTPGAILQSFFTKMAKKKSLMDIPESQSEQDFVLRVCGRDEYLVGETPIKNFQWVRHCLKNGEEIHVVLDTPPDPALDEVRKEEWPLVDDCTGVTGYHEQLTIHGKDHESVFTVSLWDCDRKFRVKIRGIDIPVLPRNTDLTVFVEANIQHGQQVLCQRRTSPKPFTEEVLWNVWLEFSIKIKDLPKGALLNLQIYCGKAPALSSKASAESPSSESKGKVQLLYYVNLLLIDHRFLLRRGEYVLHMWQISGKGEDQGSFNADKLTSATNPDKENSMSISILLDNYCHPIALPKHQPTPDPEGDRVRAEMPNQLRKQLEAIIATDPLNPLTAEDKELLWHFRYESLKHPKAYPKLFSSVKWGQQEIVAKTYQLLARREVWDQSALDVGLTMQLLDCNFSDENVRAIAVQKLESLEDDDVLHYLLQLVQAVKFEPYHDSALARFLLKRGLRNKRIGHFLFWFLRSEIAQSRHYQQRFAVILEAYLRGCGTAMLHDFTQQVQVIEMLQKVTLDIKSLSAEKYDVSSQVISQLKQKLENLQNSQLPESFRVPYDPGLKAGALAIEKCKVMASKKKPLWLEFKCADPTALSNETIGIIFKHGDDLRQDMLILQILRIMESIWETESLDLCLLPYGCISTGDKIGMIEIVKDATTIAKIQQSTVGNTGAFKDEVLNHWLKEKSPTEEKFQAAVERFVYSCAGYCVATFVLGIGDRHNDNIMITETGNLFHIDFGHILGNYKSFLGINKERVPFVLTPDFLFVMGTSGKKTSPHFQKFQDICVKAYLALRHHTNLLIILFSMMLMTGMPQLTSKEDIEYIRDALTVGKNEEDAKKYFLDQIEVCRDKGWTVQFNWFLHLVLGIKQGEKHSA", "assay": "PI3K-γ Scintillation Proximity Assay", "assay_type": "biochemical", "conditions": "read-out: PI3Kγ IC50", "procedure": "[γ-^33P]ATP (10 mCi/mL) and Wheat Germ Agglutinin (WGA) YSi SPA Scintillation Beads was purchased from Perkin-Elmer (Waltham, Mass.). […] PI3Kγ (p110γ) Recombinant Human Protein was purchased from Life technology (Grand Island, N.Y.). ATP, MgCl2, DTT, EDTA, MOPS and CHAPS were purchased from Sigma-Aldrich (St. Louis, Mo.).\nThe kinase reaction was conducted in polystyrene 384-well Greiner Bio-one white plate from Thermo Fisher Scientific in a final volume of 25 μL. Inhibitors were first diluted serially in DMSO and added to the plate wells before the addition of other reaction components. The final concentration of DMSO in the assay was 2%. The PI3Kγ assay was carried out at room temperature in 20 mM MOPS, pH 6.7, 10 mM MgCl2, 5 mM DTT and CHAPS 0.03%. Reactions were initiated by the addition of ATP, the final reaction mixture consisted of 20 μM PIP2, 2 μM ATP, 0.5 μCi [γ-^33P] […] The final concentration of SPA beads is 1.0 mg/mL. After the plate sealing, plates were shaken overnight at room temperature and centrifuged at 1500 rpm for 10 min, the radioactivity of the product was determined by scintillation counting on Topcount (Perkin-Elmer). IC50 determination was performed by fitting the curve of percent of the solvent control activity versus the log of the inhibitor concentration using the GraphPad Prism 6.0 software.", "units": {"IC50": "nM"}}
{"smiles": "Cc1ccncc1NS(=O)(=O)c1ccc(C)c(-c2cnc3c(N)ncnn23)c1", "note": "[Example 245, 3-(4-aminoimidazo[2,1-f][1,2,4]triazin-7-yl)-4-methyl-N-(4-methylpyridin-3-yl)benzenesulfonamide]", "IC50": "< 100"}
{"smiles": "COc1ccc(NS(=O)(=O)c2ccc(C)c(-c3cnc4c(N)ncnn34)c2)c(C)n1", "note": "[Example 246, 3-(4-aminoimidazo[2,1-f][1,2,4]triazin-7-yl)-N-(6-methoxy-2-methylpyridin-3-yl)-4-methylbenzenesulfonamide]", "IC50": "< 100"}
{"smiles": "Cc1ccc(S(=O)(=O)N(C)c2ccncc2)cc1-c1cnc2c(N)ncnn12", "note": "[Example 247, 3-(4-aminoimidazo[2,1-f][1,2,4]triazin-7-yl)-N,4-dimethyl-N-(pyridin-4-yl)benzenesulfonamide]", "IC50": "< 100"}
{"smiles": "Cc1ccc(S(=O)(=O)Nc2ccnc(C#N)c2)cc1-c1cnc2c(N)ncnn12", "note": "[Example 248, 3-(4-aminoimidazo[2,1-f][1,2,4]triazin-7-yl)-N-(2-cyanopyridin-4-yl)-4-methylbenzenesulfonamide]", "IC50": "< 100"}
{"smiles": "Cc1ccc(S(=O)(=O)NCc2ccnn2C)cc1-c1cnc2c(N)nc(C(F)(F)F)nn12", "note": "[Example 357, 3-(4-amino-2-(trifluoromethyl)imidazo[2,1-f][1,2,4]triazin-7-yl)-4-methyl-N-((1-methyl-1H-pyrazol-5-yl)methyl)benzenesulfonamide]", "IC50": "< 100"}
{"smiles": "Cc1ccc(S(=O)(=O)NCc2cnccn2)cc1-c1cnc2c(N)nc(C(F)(F)F)nn12", "note": "[Example 358, 3-(4-amino-2-(trifluoromethyl)imidazo[2,1-f][1,2,4]triazin-7-yl)-4-methyl-N-(pyrazin-2-ylmethyl)benzenesulfonamide]", "IC50": "< 100"}
{"smiles": "Cc1ccc(S(=O)(=O)NC23CCCC(C#N)(C2)C3)cc1-c1cnc2c(N)ncnn12", "note": "[Example 520, 3-(4-Aminoimidazo[2,1-f][1,2,4]triazin-7-yl)-N-(5-cyanobicyclo[3.1.1]heptan-1-yl)-4-methylbenzenesulfonamide trifluoroacetate]", "IC50": "< 100"}
{"smiles": "Cc1ccc(S(=O)(=O)NC23CCCC(C(C)O)(C2)C3)cc1-c1cnc2c(N)ncnn12", "note": "(centres unmarked) [Example 521, 3-(4-aminoimidazo[2,1-f][1,2,4]triazin-7-yl)-N-(5-(1-hydroxyethyl)bicyclo[3.1. 1]heptan-1-yl)-4-methylbenzenesulfonamide trifluoroacetate]", "IC50": "< 100"}
{"smiles": "Cc1ccc(S(=O)(=O)NC23CCCC(C(C)N4CC(C#N)C4)(C2)C3)cc1-c1cnc2c(N)ncnn12", "note": "(centres unmarked) [Example 522, 3-(4-Aminoimidazo[2,1-f][1,2,4]triazin-7-yl)-N-(5-(1-(3-cyanoazetidin-1-yl)ethyl)bicyclo[3.1.1]heptan-1-yl)-4-methylbenzenesulfonamide trifluoroacetate]", "IC50": "< 100"}
{"smiles": "Cc1ccc(S(=O)(=O)NC23CC(CN(C)C2)C3)cc1-c1cnc2c(N)ncnn12", "note": "[Example 523, 3-(4-Aminoimidazo[2,1-f][1,2,4]triazin-7-yl)-4-methyl-N-(3-methyl-3-azabicyclo[3.1.1]heptan-1-yl)benzenesulfonamide trifluoroacetate]", "IC50": "< 100"}
{"smiles": "Cc1ccc(S(=O)(=O)NC23CC(CN(C(C)C)C2)C3)cc1-c1cnc2c(N)nc(C(F)(F)F)nn12", "note": "[Example 524, 3-(4-Amino-2-(trifluoromethyl)imidazo[2,1-f][1,2,4]triazin-7-yl)-N-(3-isopropyl-3-azabicyclo[3.1.1]heptan-1-yl)-4-methylbenzenesulfonamide trifluoroacetate]", "IC50": "< 100"}
{"smiles": "Cc1ccc(S(=O)(=O)NC23CC(CN(C4CCC4)C2)C3)cc1-c1cnc2c(N)ncnn12", "note": "[Example 525, 3-(4-Aminoimidazo[2,1-f][1,2,4]triazin-7-yl)-N-(3-cyclobutyl-3-azabicyclo[3.1.1]heptan-1-yl)-4-methylbenzenesulfonamide trifluoroacetate]", "IC50": "100 to 500"}
{"smiles": "Cc1ccc(S(=O)(=O)NC2(C)CCCN(C)C2)cc1-c1cnc2c(N)nc(C(F)(F)F)nn12", "note": "(centres unmarked) [Example 526, 3-(4-Amino-2-(trifluoromethyl)imidazo[2,1-f][1,2,4]triazin-7-yl)-N-(1,3-dimethylpiperidin-3-yl)-4-methylbenzenesulfonamide trifluoroacetate]", "IC50": "< 100"}
{"smiles": "Cc1ccc(S(=O)(=O)NC2(C)CCCN(C(C)C)C2)cc1-c1cnc2c(N)nc(C(F)(F)F)nn12", "note": "(centres unmarked) [Example 527, 3-(4-Amino-2-(trifluoromethyl)imidazo[2,1-f][1,2,4]triazin-7-yl)-N-(1-isopropyl-3-methylpiperidin-3-yl)-4-methylbenzenesulfonamide trifluoroacetate]", "IC50": "< 100"}
{"smiles": "Cc1ccc(S(=O)(=O)NC2(C)CCN(C)CC2)cc1-c1cnc2c(N)nc(C(F)(F)F)nn12", "note": "[Example 528, 3-(4-Amino-2-(trifluoromethyl)imidazo[2,1-f][1,2,4]triazin-7-yl)-N-(1,4-dimethylpiperidin-4-yl)-4-methylbenzenesulfonamide trifluoroacetate]", "IC50": "< 100"}
{"smiles": "Cc1ccc(S(=O)(=O)NC2(C)CCN(C3CC(C#N)C3)CC2)cc1-c1cnc2c(N)nc(C(F)(F)F)nn12", "note": "(centres unmarked) [Example 529, 3-(4-Amino-2-(trifluoromethyl)imidazo[2,1-f][1,2,4]triazin-7-yl)-N-(1-(3-cyanocyclobutyl)-4-methylpiperidin-4-yl)-4-methylbenzenesulfonamide trifluoroacetate]", "IC50": "100 to 500"}
{"smiles": "Cc1ccc(S(=O)(=O)NC2(C)CCN(C3CCOC3)CC2)cc1-c1cnc2c(N)nc(C(F)(F)F)nn12", "note": "(centres unmarked) [Example 530, 3-(4-Amino-2-(trifluoromethyl)imidazo[2,1-f][1,2,4]triazin-7-yl)-4-methyl-N-(4-methyl-1-(tetrahydrofuran-3-yl)piperidin-4-yl)benzenesulfonamide trifluoroacetate]", "IC50": "100 to 500"}
{"smiles": "Cc1ccc(S(=O)(=O)NC2(C)CNC2)cc1-c1cnc2c(N)nc(C(F)(F)F)nn12", "note": "[Example 531, 3-(4-Amino-2-(trifluoromethyl)imidazo[2,1-f][1,2,4]triazin-7-yl)-4-methyl-N-(3-methylazetidin-3-yl)benzenesulfonamide trifluoroacetate]", "IC50": "< 100"}
{"smiles": "Cc1ccc(S(=O)(=O)NC2(C)CN(C)C2)cc1-c1cnc2c(N)nc(C(F)(F)F)nn12", "note": "[Example 532, 3-(4-Amino-2-(trifluoromethyl)imidazo[2,1-f][1,2,4]triazin-7-yl)-N-(1,3-dimethylazetidin-3-yl)-4-methylbenzenesulfonamide]", "IC50": "< 100"}
{"smiles": "Cc1ccc(S(=O)(=O)NC2(C)CCN(C)C2)cc1-c1cnc2c(N)nc(C(F)(F)F)nn12", "note": "(centres unmarked) [Example 533, 3-(4-Amino-2-(trifluoromethyl)imidazo[2,1-f][1,2,4]triazin-7-yl)-N-(1,3-dimethylpyrrolidin-3-yl)-4-methylbenzenesulfonamide trifluoroacetate]", "IC50": "< 100"}
{"smiles": "Cc1ccc(S(=O)(=O)NC23C4C5C2C2C3C4C52C#N)cc1-c1cnc2c(N)ncnn12", "note": "(centres unmarked) [Example 534, 3-(4-Aminoimidazo[2,1-f][1,2,4]triazin-7-yl)-N-(4-cyanocuban-1-yl)-4-methylbenzenesulfonamide trifluoroacetate]", "IC50": "< 100"}
{"smiles": "Cc1ccc(S(=O)(=O)NC23C4C5C2C2C3C4C52C(C)(C)O)cc1-c1cnc2c(N)ncnn12", "note": "(centres unmarked) [Example 535, 3-(4-Aminoimidazo[2,1-f][1,2,4]triazin-7-yl)-N-(4-(2-hydroxypropan-2-yl)cuban-1-yl)-4-methylbenzenesulfonamide trifluoroacetate]", "IC50": "< 100"}
{"smiles": "Cc1ccc(S(C)(=O)=O)cc1-c1cnc2c(N)nc(C3CCOCC3)cn12", "note": "[Example 536, 3-(2-Methyl-5-(methylsulfonyl)phenyl)-6-(tetrahydro-2H-pyran-4-yl)imidazo[1,2-a]pyrazin-8-amine trifluoroacetate]", "IC50": "< 100"}
{"smiles": "CC(=O)N1CCC(c2cn3c(-c4cc(S(C)(=O)=O)ccc4C)cnc3c(N)n2)CC1", "note": "[Example 537, 1-(4-(8-Amino-3-(2-methyl-5-(methylsulfonyl)phenyl)imidazo[1,2-a]pyrazin-6-yl)piperidin-1-yl)ethan-1-one trifluoroacetate]", "IC50": "< 100"}
{"smiles": "COC(=O)N1CCC(c2cn3c(-c4cc(S(C)(=O)=O)ccc4C)cnc3c(N)n2)C1", "note": "(centres unmarked) [Example 538, Methyl 3-(8-amino-3-(2-methyl-5-(methylsulfonyl)phenyl)imidazo[1,2-a]pyrazin-6-yl)pyrrolidine-1-carboxylate trifluoroacetate]", "IC50": "100 to 500"}
{"smiles": "Cc1ccc(S(=O)(=O)Nc2ccc(C(=O)NCC(F)(F)F)nc2)cc1-c1cnc2c(N)ncnn12", "note": "[Example 539, 5-((3-(4-Aminoimidazo[2,1-f][1,2,4]triazin-7-yl)-4-methylphenyl)sulfonamido)-N-(2,2,2-trifluoroethyl)picolinamide trifluoroacetate]", "IC50": "< 100"}
